Experimental findings from ChEMBL document CHEMBL4842329 (Eur J Med Chem, 2021) are described below.

In the first test the target is T1, Sodium-dependent serotonin transporter (Homo sapiens, UniProt P31645).
T1 sequence (P31645 whole entry): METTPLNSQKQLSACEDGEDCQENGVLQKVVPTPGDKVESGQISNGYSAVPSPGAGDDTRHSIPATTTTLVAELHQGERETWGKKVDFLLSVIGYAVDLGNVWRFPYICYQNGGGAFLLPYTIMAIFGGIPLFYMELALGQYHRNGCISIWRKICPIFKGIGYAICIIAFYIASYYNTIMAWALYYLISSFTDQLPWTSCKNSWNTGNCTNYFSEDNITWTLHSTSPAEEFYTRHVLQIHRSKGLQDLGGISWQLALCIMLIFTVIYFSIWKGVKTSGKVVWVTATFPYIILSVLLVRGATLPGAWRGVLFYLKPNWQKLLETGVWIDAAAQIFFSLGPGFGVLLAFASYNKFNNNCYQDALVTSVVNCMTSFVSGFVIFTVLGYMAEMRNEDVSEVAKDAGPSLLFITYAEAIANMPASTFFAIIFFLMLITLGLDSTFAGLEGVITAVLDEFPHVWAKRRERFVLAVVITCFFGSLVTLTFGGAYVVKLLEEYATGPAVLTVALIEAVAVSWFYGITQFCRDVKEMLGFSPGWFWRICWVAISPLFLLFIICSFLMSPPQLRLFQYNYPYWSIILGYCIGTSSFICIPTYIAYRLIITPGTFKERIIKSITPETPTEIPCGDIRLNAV
Test: not given
It is filed as cell-based, COS7.
As to `COC(=O)C1CCC2CC(O)C1N2c1ccc(Cl)c(Cl)c1` (stereo not given), the IC50 was determined as 5650 nM. The molecule `COC(=O)C1CCC2CC(O)C1N2c1ccccc1` (stereo not given) yielded a half-maximal inhibitory concentration (IC50) of 15 nM.

A further test addresses T1, Sodium-dependent serotonin transporter.
Test: not given
The source holds these as a separate data set.
With `Brc1ccc([C@@H]2CCNC[C@H]2COc2ccc3c(c2)OCO3)cc1`, the inhibition constant (Ki) came to 1.07 nM.

For another test the target is unchanged. Kind of test: biochemical. It is filed as cell-based, HEK293.
On to `CNCCC(Oc1ccc(Br)cc1)c1ccccc1` (stereo not given), for which the Ki was 24 nM. This lies in the double-digit nanomolar range. The same measure, in the same setting: the same measure for `CNCCC(Oc1ccc(Cl)c(F)c1)c1ccccc1` (stereo not given): 31 nM; for `COCCCC/C(=N\OCCN)c1ccc(Cl)cc1F`: 202 nM. Still for that read-out and setting: the same measure for `CNCCC(Oc1ccc(I)cc1F)c1ccccc1` (stereo not given): 23 nM. Still for that read-out and setting: under `COCCCC/C(=N\OCCN)c1ccc(F)cc1` stands 1620 nM. `COCCCC/C(=N\OCCN)c1ccc(Br)c(F)c1` showed an inhibition constant (Ki) of 21 nM. Consider `CNCCC(Oc1ccc(Br)c(F)c1)c1ccccc1` (stereo not given), for which the affinity corresponds to a Ki of 19 nM. Still for that read-out and setting: under `COCCCC/C(=N\OCCN)c1ccc(Br)cc1F` stands 137 nM; under `CNCCC(Oc1ccccc1)c1ccccc1` (stereo not given), 1460 nM; under `CNCCC(Oc1ccc(Cl)c(Cl)c1)c1ccccc1` (stereo not given), 5 nM. `CNCCC(Oc1ccc(Cl)cc1F)c1ccccc1` (stereo not given): the Ki was found to be 52 nM. Take `COCCCC/C(=N\OCCN)c1ccc(Cl)c(Cl)c1`: affinity was put at a Ki of 9 nM. Compared with the last molecule, the Ki is about 5.8-fold lower. `COCCCC/C(=N\OCCN)c1ccc(Br)cc1` came in with a Ki of 23 nM. This Ki is about 2.6-fold higher than that of the molecule before. The molecule `COCCCC/C(=N\OCCN)c1ccc(I)cc1` returned an inhibitory constant (Ki) of 15 nM.

Molecule `CNCCC(Oc1ccc(F)cc1)c1ccccc1` (stereo not given) came in with an inhibition constant Ki of 543 nM.

As for `COCCCC/C(=N\OCCN)c1ccc(Cl)cc1`, the Ki turned out to be 61 nM.

The molecule `CNCCC(Oc1ccc(Br)cc1F)c1ccccc1` (stereo not given) showed a Ki of 41 nM. As to `CNCCC(Oc1cccc(F)c1)c1ccccc1` (stereo not given), the Ki amounted to 349 nM. Compared with the last molecule, the Ki is about 8.5-fold higher. `COCCCC/C(=N\OCCN)c1ccc(Cl)c(F)c1` registered a Ki of 62 nM. This Ki is about 5.6-fold lower than that of the molecule before.

In turn, `CNCCC(Oc1cccc(Cl)c1)c1ccccc1` (stereo not given) returned an inhibitory constant (Ki) of 66 nM. Molecule `CNCCC(Oc1ccc(I)cc1)c1ccccc1` (stereo not given) returned a Ki of 14 nM. Still for that read-out and setting: the same measure for `CNCCC(Oc1ccc(Cl)cc1)c1ccccc1` (stereo not given): 55 nM.

For orientation: IC50 means the midpoint of a concentration-inhibition curve. A low value points to inhibition by little substance. The term Ki denotes the dissociation constant of the complex between target and ligand, obtained from inhibition or displacement.
